Consider one compound from US20040266732A1, “Therapeutic agents, methods, and treatments” (priority 2002, published 2004).

The structures appear in SMILES notation.

One may read the GI50 as the concentration that inhibits growth by half. The low end stands for greater sensitivity of the cells, the high end for lower sensitivity of the cells.

The subject of one series is SK-MEL-2. Kind of series: NCI 60 cell-line test. The class given is cell-based, human. The following applies: SK-MEL-2 (Melanoma). The gist of the method:
(§1)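 Plating densities of 5,000 to 40,000 cells/well depended on doubling time; drug was added after 24 h preincubation. Plates were incubated 48 h more, fixed with cold TCA (suspension cells with 80% TCA), stained with 0.4% SRB and read at 515 nm.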

The test system of the next series is PC-3. Briefly: NCI 60 cell-line test. The class given is cell-based, human. The conditions noted are these: PC-3 (Prostate Cancer). The procedure, abridged: as §1
Another series concerns COLO 205. Briefly: NCI 60 cell-line test. The class given is cell-based, human. The following applies: COLO 205 (Colon Cancer). The gist of the method:
as §1

In the next series the test system is UACC-257. Kind of series: NCI 60 cell-line test. The class given is cell-based, human. The following applies: UACC-257 (Melanoma). The procedure, abridged: as §1
The subject of the next series is NCI-H23. Briefly: NCI 60 cell-line test. The class given is cell-based, human. The conditions noted are these: NCI-H23 (Non-Small Cell Lung Cancer). The procedure, abridged: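 SRB protein stain, A515, TCA-fixed; 48 h continuous drug exposure, ≥5 concentrations at 10-fold dilutions; RPMI 1640/5% FBS. GI50 = 50% reduction in net protein increase vs control; TGI at Ti=Tz; LC50 at 50% loss vs time zero.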

Another series relates to NCI/ADR-RES. Briefly: NCI 60 cell-line test. The class given is cell-based, human. The following applies: NCI/ADR-RES (Breast Cancer). The procedure, abridged: as §1
The subject of a further series is HCT-15. Briefly: NCI 60 cell-line test. Format: cell-based, human. The following applies: HCT-15 (Colon Cancer). The gist of the method: as §1
Series [1] concerns NCI-H226 human non-small cell lung cancer cell line. Briefly: MTS assay. Format: cell-based. The protocol:
Methods The MTS assay was employed in the evaluation of these compounds. The cells were harvested, centrifuged to remove the medium, and suspended in fresh complete medium. Samples were taken to determine cell density. The cell count was determined with a Coulter Model Z cell counter and viability was measured with propidium iodine staining call by analysis on Coulter EPICS flow cytometer. The cell line was plated at 5×10^3 cells per well in complete medium. On the following day, the cells were closed with the dilutions of the compound. The plates were analyzed on Day for after initiation of treatment.
The cell line was propagated using standard tissue culture procedures and seeded in microtiter plates prior to dosing. Control groups included a mock treatment, media control, and a positive control (doxorubicin, 1 μM). For each concentration level, eight replicates were treated. The cell line was propagated under sterile conditions at 37° C. in 5% CO2 and 95% humidity. MT103 was stored at 4° C. until dissolved and diluted in complete medium.
Anti-cellular effects of the compound were assessed with the MTS dye conversion assay. MTS was purchased as a single solution, and stored at −20° C. […] The absorbance of formazan in each monolayer was measured at 490 nm on a Coulter microplate reader at four hours after addition of the MTS.

Setting [2] is: read-out: LC50 (the source's name).

On to `CC1(C)C2CC[C@@]1(CS(=O)(=O)N(C1CCCCC1)C1CCCCC1)C(O)C2` (stereo partly drawn) [MT103], for which the TGI is 6.77E−05 with SK-MEL-2; above 1.00E−04 in the series on PC-3; 4.98E−05 in the series on COLO 205; 9.53E−05 in the series with UACC-257; above 1.00E−04 in the series on NCI/ADR-RES; above 1.00E−04 with HCT-15. Besides, the IC50 in the series on SK-MEL-2 (read-out: G150) came to 26 µM; in the series on PC-3 (read-out: G150), 27.8 µM; in the series with COLO 205 (read-out: G150), 21.3 µM; in the series on UACC-257 (read-out: G150), 28.5 µM; in the series on NCI-H23 (read-out: G150), 26.9 µM; in the series with NCI/ADR-RES (read-out: G150) it was 34.9 µM. For the same compound, the IC50 with HCT-15 (read-out: G150) stood at 25.7 µM. Besides, the CC50 with SK-MEL-2 (setting [2]), in the series with PC-3 (setting [2]), with COLO 205 (setting [2]), in the series on UACC-257 (setting [2]), in the series with NCI-H23 (setting [2]) and in the series with NCI/ADR-RES (setting [2]) was above 100 µM throughout. In addition, in the series on HCT-15 (setting [2]), the CC50 is above 100 µM. Also, the GI50 in series [1] is 66 µM.
